In patent US8088752B2, “Methods for metabolic modulation” (VDF FutureCeuticals, Inc., priority 2003, dated 2012):
Entries after “also recorded” stand apart in the source; their conditions may differ.

What was measured:
[1] = Serum level of DHZ in mice after oral or i.p. administration (ELISA); assay type: in vivo, mouse; settings: C57/B1 mice, 100 microgram/dose
Experimental: C57/B1 mice were treated with 100 microgram/dose of dihydrozeatin (DHZ) for 0, 15, 30, 60 and 120 minutes following oral or i.p. administration. Serum level of DHZ in pg/ml was measured using DHZ Elisa following procedures as enclosed in a commercially available test kit (e.g., dihydrozeatin competitive ELISA test system for plant growth hormone detection, Agdia, Elkhard, Ind.). Three animals were used per experimental point.

activated AMPK = assay: Level of activated AMPK in muscle cells, Western immunoblotting; assay type: cell-based, mouse; settings: for AMPK activity (in words): summary of Table 1
Experimental: (§1) In Vitro Effect of Selected Compounds on Glut-4, activated AMPK, and activated Akt The levels of Glut-4, activated AMPK and activated Akt were measured in mouse muscle cells C2C12 (from ATTC) and in primary culture of human skeletal muscle cells (Clonetics, Inc.) using Western immunoblotting. C2C12 cells were plated at […] cells per mL/well (12-well plate) in standard cell culture medium (DMEM supplemented with 10% fetal bovine serum (FBS), 25 mM glucose, 20 mM Hepes, 4 mM glutamine and 2 mM sodium pyruvate. 48 hrs after the plating, medium was changed to differentiation medium (DMEM supplemented with 5 mM of glucose and 0.5% of FBS) for next 3-4 days to stimulate the formation of myotubes. Three hrs before the treatment with selected agents, cells were washed with PBS and transferred to PBS supplemented with 5 mM of glucose.
(§2) Human skeletal muscle cells (HSKM) were cultured in SKBM-2 mediums provided by Clonetics. 48 hrs after cell plating, medium was changed to SKBM medium to stimulate differentiation of the cells to myotubes. When differentiated, the myotubes were transferred to PBS supplemented with 5 mM glucose for three hrs before the treatment.
(§3) Analysis of C2C12 cells for the level of activated AMPK, Akt and the level of GLUT-4 was performed in the same experimental system. The cells were treated for 30 minutes at 37° C. […] Subsequently, 20 μg per sample of sample protein was used for Western analysis using NuPage 10% Bis/Tris gels (Invitrogen). After exposure of membranes to primary and secondary antibodies AMPK, AKT or Glut-4 was detected using ECL-Plus (Amersham) following producer's instruction. Chemilumiscent signals were detected by using ChemiDoc system from Biorad. Intensity of detected signals were analyzed and measured using Quantity One software (Biorad). Alternatively, the level of phosphorylated AMPK was detected using ECL kit from Amersham and short exposure to Kodak films.
(§4) Experimental setup: Cell Culture was followed by treatment with selected contemplated compounds, which was followed by cell lysis and western blot analysis for AMPK, Akt, GLUT4, total AMPK, and total Akt. Signals were acquired accordingly.

activated Akt = assay: Level of activated Akt in muscle cells, Western immunoblotting; assay type: cell-based, mouse; settings: for FOLD AKT ACTIVATION (OVER CONTROL): 30 minutes; for Akt activity (in words): summary of Table 2
Experimental: as §1, §2, §3, §4

muscle cells = assay: In vitro myocyte total glucose uptake, fluorescent glucose analog; assay type: cell-based; settings: summary of Table 4
Experimental: Total glucose uptake was measured using fluorescent glucose analog from Molecular Probes. Briefly, muscle cells were treated with kinetin, N^2-Acetyl-Guanosine and N^2-Acetyl-Guanine for 30 minutes at 37 C first and subsequently, these cells were exposed to 500 μM of fluorescent glucose analog for 5 minutes at room temperature. Next, cells were washed twice with cold Krebs-Hepes buffered solution and fixed in 70% ethanol in water. Fluorescence of fluorescent glucose in the cells was measured using fluorescent plate reader at 480/530 nm (excitation/emission). […] Table 4 refers to multiple independent experiments where multiple identical concentrations for the same reagents are indicated.

GLUT-4 = GLUT-4 protein level in C2C12 cells, Western immunoblotting; assay type: cell-based, mouse; settings: summary of Table 3
Experimental: as §1
Analysis of C2C12 cells for the level of activated AMPK, Akt and the level of GLUT-4 was performed in the same experimental system. The cells were treated for 30 minutes at 37° C. […] After exposure of membranes to primary and secondary antibodies AMPK, AKT or Glut-4 was detected using ECL-Plus (Amersham) following producer's instruction. Chemilumiscent signals were detected by using ChemiDoc system from Biorad. Intensity of detected signals were analyzed and measured using Quantity One software (Biorad). Alternatively, the level of phosphorylated AMPK was detected using ECL kit from Amersham and short exposure to Kodak films. […]

CC(CO)CCNc1ncnc2nc[nH]c12 (stereo not drawn) [Dihydro-Zeatin, dihydrozeatin]
time over which significant serum concentrations can be maintained [1]: at least 120 minutes | oral bioavailability (in words) ([1]; oral): readily bioavailable from the oral route

C/C(=C\CNc1ncnc2[nH]cnc12)CO [Zeatin]
AMPK activity (in words) (activated AMPK): more potent compounds; also recorded: potent stimulator of AMPK | FOLD AKT ACTIVATION (OVER CONTROL) (activated Akt; 1.0 microM): 0.95 fold | Akt activity (in words) (activated Akt): not Akt

NC(=O)c1ncn([C@@H]2O[C@H](CO)[C@@H](O)[C@H]2O)c1N [AICAR, 4-Amino-5-imidazolecarboxamide riboside, reference compound]
FOLD AKT ACTIVATION (OVER CONTROL) (activated Akt; 50.0 microM): 2.20 fold

c1coc(CNc2ncnc3[nH]cnc23)c1 [Kinetin, kinetin]
AMPK activity (in words) (activated AMPK): more potent compounds | glucose uptake in muscle cells in vitro (in words) (muscle cells): potently enhance glucose uptake | GLUT-4 protein level (in words) (GLUT-4): potently increase GLUT-4 protein level

CC(=O)Nc1nc2c(ncn2[C@@H]2O[C@H](CO)[C@@H](O)[C@H]2O)c(=O)[nH]1 [N^2-Acetyl-Guanosine]
AMPK activity (in words) (activated AMPK): potent activators of AMPK as well as Akt | glucose uptake in muscle cells in vitro (in words) (muscle cells): potently enhance glucose uptake | Akt activity (in words) (activated Akt): potent activators of AMPK as well as Akt | GLUT-4 protein level (in words) (GLUT-4): potently increase GLUT-4 protein level

c1ccc(CNc2ncnc3nc[nH]c23)cc1 [Benzyl-Adenine]
FOLD AMPK ACTIVATION (OVER CONTROL) (activated AMPK; 5.0 microM, 30 minutes): 2.70 fold

Insulin: Insulin, comparator in the Akt activation test
FOLD AKT ACTIVATION (OVER CONTROL) (activated Akt; 0.10 nanoM): 1.75 fold | FOLD AKT ACTIVATION (OVER CONTROL) (activated Akt; 25.0 nanoM): 3.40 fold | FOLD AKT ACTIVATION (OVER CONTROL) (activated Akt; 50.0 nanoM): 3.28 fold

CC(=O)Nc1nc2nc[nH]c2c(=O)[nH]1 [N^2-Acetyl-Guanine, N2-acetylguanine]
AMPK activity (in words) (activated AMPK): potent activators of AMPK as well as Akt | glucose uptake in muscle cells in vitro (in words) (muscle cells): potently enhance glucose uptake | Akt activity (in words) (activated Akt): potent activators of AMPK as well as Akt | GLUT-4 protein level (in words) (GLUT-4): potently increase GLUT-4 protein level

C/C(=C\CNc1ncnc2nc[nH]c12)CO [Trans-Zeatin]
FOLD AKT ACTIVATION (OVER CONTROL) (activated Akt; 1.0 microM): 0.90 fold | FOLD AKT ACTIVATION (OVER CONTROL) (activated Akt; 10.0 microM): 0.86 fold

CC(C)=CCNc1ncnc2nc[nH]c12 [Gamma, Gamma-Dimethylally-6-Aminopurine]
FOLD AKT ACTIVATION (OVER CONTROL) (activated Akt; 0.8 microM): 1.90 fold

CN(C)C(=N)N=C(N)N [Metformin, reference compound]
FOLD AKT ACTIVATION (OVER CONTROL) (activated Akt; 20.0 milliM): 2.32 fold

Nc1nc2c(ncn2[C@@H]2O[C@H](CO)[C@@H](O)[C@H]2O)c(=O)[nH]1 [Guanosine]
AMPK activity (in words) (activated AMPK): potent activators of AMPK as well as Akt | Akt activity (in words) (activated Akt): potent activators of AMPK as well as Akt
